Experimental data published in ChEMBL document CHEMBL1158943, “Chemistry of Sponges, XI. 22-Deoxyvariabilin, a New Sesterterpene from the Sponge Thorecta sp” (J Nat Prod, 1991).
The source made the active and inactive calls.

Legend:
Type in all cases: functional, organism-based
[1] = tested on: Bacillus subtilis; experiment: Antimicrobial activity against Bacillus subtilis at 50 ug/disk by standard disk method
[2] = tested on: Candida albicans; experiment: Antimicrobial activity against Candida albicans at 100 ug/disk by standard disk method
[3] = tested on: Staphylococcus aureus; experiment: Antimicrobial activity against Staphylococcus aureus at 100 ug/disk by standard disk method

Measured: Activity

CC1=C/C(=C/[C@@H](C)CCC/C(C)=C/CC/C(C)=C/CCc2ccoc2)OC1=O
active: all assays above
